Key:
G-quadruplexes = conditions: literature statement; cited from earlier work
[1] = molecular target: Htelo2 non-parallel G-quadruplex; assay: Gel electrophoresis binding, Htelo2; design: species or system human; conditions: Htelo2 non-parallel forming sequence; read-out: estimated Kd
Description: (§1) DNA concentrations were fixed at 100 nM and Rhau55 was 1 μM, in 70 mM KCL and 20 mM phosphate buffer (pH=6.8).
(§2) To confirm that the observed selective effect was based on the structure rather than sequence, the binding of Rhau55 was tested using the human telomeric sequences in K^+-containing solution, with and without crowded condition (40% v/v PEG200). In diluted solutions the human telomeric sequences Htelo1, Htelo2, Htelo3 and Helo4 form a distinct and non-parallel G-quadruplex (Luu K N et al. (2006) J Am ChemSoc, 128(30), 9963-9970; Phan A T et al. (2006) Nucleic Acids Res, 34(19), 5715-5719; Lim K W et al. (2009) J Am ChemSoc, 131(12), 4301-430; Lim K W et al. (2009) Nucleic Acids Res, 37(18), 6239-6248), however in crowded conditions those sequences form a propeller-type parallel stranded G-quadruplex.
(§3) Subsequently, a quantitative analysis of the interaction between Rhau55 and three G-quadruplexes was performed using gel electrophoresis (FIG. 4). The analysis indicated a dissociation constant of 1029 nM and 989 nM for the parallel-type form of Htelo1 (under crowded condition) and the single, loop propeller-type T95_2 T, respectively, consistent with previous published data for the full-length protein (Tran H et al. (2004) Mol Cell, 13, 101). […]

[2] = molecular target: Htelo3 non-parallel G-quadruplex; assay: Gel electrophoresis binding, Htelo3; design: species or system human; conditions: Htelo3 non-parallel forming sequence; read-out: estimated Kd
Description: as §1, §2, §3

[3] = system: parallel G-quadruplexes DNA and RNA (93del, CEB25, Pu24T, CEB1, TERC18, 12 nt TER, 10 nt TER); assay: Native gel electrophoresis of Rhau55 with parallel G-quadruplexes; assay type: binding; conditions: various parallel G-quadruplexes DNA and RNA; DNA 100 μM, 70 mM KCl, 20 mM phosphate pH 6.8
Description: The ratio between Rhau55 and Nucleic acids is indicated on top of each lane. DNA concentrations were fixed at 100 μM, in 70 mM KCL and 20 mM phosphate buffer (pH=6.8).
Rhau55 was expressed in Escherichia coli. The binding of Rhau55 to different G-quadruplexes nucleic acids topology was first tested using gel electrophoresis.
(§4) Rhau55 binds to various parallel G-quadruplexes DNA and RNA (FIGS. 1 and 3-5) but not to various forms of non-parallel G-quadruplexes (FIGS. 1 and 6).

[4] = molecular target: Htelo4 non-parallel G-quadruplex; assay: Gel electrophoresis binding, Htelo4; design: species or system human; conditions: Hetol4 non-parallel forming sequence; read-out: estimated Kd
Description: as §1, §2, §3

[5] = molecular target: T95_2T (single loop propeller-type parallel G-quadruplex); assay: Quantitative gel mobility shift assay of Rhau55 binding to T95_2T; conditions: gel electrophoresis, DNA 100 nM, read-out: dissociation constant
Description: (§5) (A) T95_2 T and Htelo1 at a concentration of 100 nM were incubated for 15 minutes at room temperature with an increasing concentration of Rhau55. (B) Quantification of gel electrophoresis assays bands of T95_2 T (black dot) and Htelo1 in dilute (open square) and crowding condition (black cross).
(§6) Subsequently, a quantitative analysis of the interaction between Rhau55 and three G-quadruplexes was performed using gel electrophoresis (FIG. 4). The analysis indicated a dissociation constant of 1029 nM and 989 nM for the parallel-type form of Htelo1 (under crowded condition) and the single, loop propeller-type T95_2 T, respectively, consistent with previous published data for the full-length protein (Tran H et al. (2004) Mol Cell, 13, 101). In contrast an apparent binding of >10 μM was found with the hybrid “3+1” form 1, and an estimated Kd over 10 μM was found for Htelo2, Htelo3 and Hetol4 non-parallel forming sequences, highlighting a net preference for the human telomeric sequences forming a parallel-type G-quadruplex. From the data little effect on three (Htelo1, parallel form) and single (T95_2T) loop size was observed on Rhau55 binding affinity.

[6] = molecular target: parallel-type form of Htelo1 (under crowded condition); assay: Quantitative gel mobility shift assay, Htelo1 in crowding condition (40% PEG); assay type: binding, human; conditions: parallel-type form of Htelo1 under crowded condition (40% PEG); gel electrophoresis; read-out: dissociation constant
Description: as §5, §2
Subsequently, a quantitative analysis of the interaction between Rhau55 and three G-quadruplexes was performed using gel electrophoresis (FIG. 4). […]

[7] = system: mixture of T95_2T (propeller parallel form) and HT1 (non-parallel); assay: NMR imino proton spectra of a mixture of HT1 and T95_2T with Rhau55; assay type: binding; conditions: Rhau55 added to mixture of T95_2T (parallel) and HT1 (non-parallel)
Source text: as §4

[8] = system: human telomeric sequences Htelo1-Htelo4 G-quadruplexes; assay: Gel shift assay of human telomeric sequences with and without crowded condition (40% v/v PEG200); assay type: binding; conditions: human telomeric sequences in K+ solution, dilute (non-parallel) vs crowded 40% v/v PEG200 (parallel)
Description: as §1, §2

[9] = molecular target: Htelo1 hybrid "3+1" form 1 G-quadruplex; assay: Quantitative gel mobility shift assay, Htelo1 in dilute condition; design: species or system human; conditions: Htelo1 hybrid "3+1" form 1, dilute condition; read-out: apparent binding
Description: as §5, §6

| Molecule | dissociation constant Kd (G-quadruplexes) | Kd [1] | Kd [2] | binding in gel electrophoresis [3] | Kd [4] | Kd [5] | Kd [6] | effect on NMR imino proton peaks [7] | binding in gel shift assay [8] | Kd [9] |
| --- | --- | --- | --- | --- | --- | --- | --- | --- | --- | --- |
| C[n+]1cc(NC(=O)c2ccc3ccc4ccc(C(=O)Nc5cc6ccccc6[n+](C)c5)nc4c3n2)cc2ccccc21 [Phen-DC3] | nanomolar range |  |  |  |  |  |  |  |  |  |
| Rhau55: G-quadruplex binding domain of human helicase Rhau (DHX36), N-terminal residues 53 to 105, expressed in Escherichia coli (HPGHLKGREIGMWYAKKQGQKNKEAERQERAVVHMDERREEQIVQLLNSVQAK; UniProt Q9H2U1 53-105, looked up, fragment) |  | > 10 µM | > 10 µM | binds | > 10 µM | 0.989 µM | 1.03 µM | only affect the peaks of the former form | binds significantly only to a parallel-type G-quadruplex | > 10 µM |

Source: US9815868B2, “Peptides binding to parallel-stranded G-quadruplexes” (NANYANG TECHNOLOGICAL UNIVERSITY, priority 2013, dated 2017)
